The assay relates to L1210 leukemia ip in BDF1 mice, survival T/C. Nature of the assay: NCI In Vivo Anticancer Drug Screen. Data for tumor model L1210 Leukemia (intraperitoneal) in B6D2F1 (BDF1) mice. Conditions: endpoint: mean survival time, higher = longer survival. Summed up:
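In this screen, tumor-bearing mice given compound are compared to those given vehicle, and their survival values are reported as a treated-to-control quotient.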

Setting [1] is: dose: 100.0 mg/kg/injection, schedule: Q04DX002 (ip), vehicle: Klucel (hydroxypropylcellulose) (HPC).
Where [2] appears, read: dose: 200.0 mg/kg/injection, schedule: Q04DX002 (ip), vehicle: Klucel (hydroxypropylcellulose) (HPC).

The text below walks through data of PubChem BioAssay AID248 (DTP/NCI, 2004).

SMILES strings stand for the structures. Values joined by “and” are separate entries in the source; they are usually repeats but may differ in a detail not shown here. Equal values may be shown once. Toxic doses and inconclusive results are not listed.

On to `Cc1[nH]c(=O)[nH]c(=O)c1N(CCF)CCCl`, for which the T/C runs as follows: (dose: 5.0 mg/kg/injection, schedule: Q01DX009 (ip), vehicle: Klucel (hydroxypropylcellulose) (HPC)) 104 % of control and 107 % of control; (dose: 5.0 mg/kg/injection, schedule: Q01DX009 (ip), vehicle: saline) 106 % of control; (dose: 9.0 mg/kg/injection, schedule: Q01DX009 (ip), vehicle: Klucel (hydroxypropylcellulose) (HPC)) 108 % of control; (dose: 10.0 mg/kg/injection, schedule: Q01DX009 (ip), vehicle: Klucel (hydroxypropylcellulose) (HPC)) 112 % of control; (dose: 10.0 mg/kg/injection, schedule: Q01DX009 (ip), vehicle: saline) 112 % of control; (dose: 14.0 mg/kg/injection, schedule: Q01DX009 (ip), vehicle: Klucel (hydroxypropylcellulose) (HPC)) 120 % of control. Besides, the T/C runs as follows: (dose: 20.0 mg/kg/injection, schedule: Q01DX009 (ip), vehicle: Klucel (hydroxypropylcellulose) (HPC)) 110 % of control; (dose: 20.0 mg/kg/injection, schedule: Q01DX009 (ip), vehicle: saline) 124 % of control; (dose: 23.0 mg/kg/injection, schedule: Q01DX009 (ip), vehicle: Klucel (hydroxypropylcellulose) (HPC)) 123 % of control; (dose: 23.0 mg/kg/injection, schedule: Q04DX003 (ip), vehicle: Klucel (hydroxypropylcellulose) (HPC)) 108 % of control; (dose: 39.0 mg/kg/injection, schedule: Q01DX009 (ip), vehicle: Klucel (hydroxypropylcellulose) (HPC)) 94 % of control; (dose: 39.0 mg/kg/injection, schedule: Q04DX003 (ip), vehicle: Klucel (hydroxypropylcellulose) (HPC)) 116 % of control. Moreover, the T/C is, setting by setting: (dose: 65.0 mg/kg/injection, schedule: Q01DX001 (ip), vehicle: Klucel (hydroxypropylcellulose) (HPC)) 104 % of control; (dose: 108.0 mg/kg/injection, schedule: Q01DX001 (ip), vehicle: Klucel (hydroxypropylcellulose) (HPC)) 110 % of control; (dose: 108.0 mg/kg/injection, schedule: Q04DX003 (ip), vehicle: Klucel (hydroxypropylcellulose) (HPC)) 96 % of control; (dose: 180.0 mg/kg/injection, schedule: Q01DX001 (ip), vehicle: Klucel (hydroxypropylcellulose) (HPC)) 120 % of control; (dose: 180.0 mg/kg/injection, schedule: Q04DX003 (ip), vehicle: Klucel (hydroxypropylcellulose) (HPC)) 96 % of control.
For `N#Cc1cc(C(Cl)(Cl)Cl)ccc1C(Cl)(Cl)Cl`, the T/C by setting is: (dose: 100.0 mg/kg/injection, schedule: Q04DX003 (ip), vehicle: Klucel (hydroxypropylcellulose) (HPC)) 97 % of control; (dose: 200.0 mg/kg/injection, schedule: Q04DX003 (ip), vehicle: Klucel (hydroxypropylcellulose) (HPC)) 95 % of control; (dose: 400.0 mg/kg/injection, schedule: Q04DX003 (ip), vehicle: Klucel (hydroxypropylcellulose) (HPC)) 90 % of control.
Regarding `O=NN(CCCl)C(=O)NC1CCS(=O)(=O)CC1`, the T/C by setting is: (dose: 6.0 mg/kg/injection, schedule: Q01DX001 (ip), vehicle: carboxymethylcellulose (CMC)) 228 % of control; (dose: 7.5 mg/kg/injection, schedule: Q01DX001 (ip), vehicle: carboxymethylcellulose (CMC)) 313 % of control; (dose: 8.0 mg/kg/injection, schedule: Q01DX001 (ip), vehicle: carboxymethylcellulose (CMC)) 235 % of control; (dose: 11.4 mg/kg/injection, schedule: Q01DX001 (ip), vehicle: carboxymethylcellulose (CMC)) 337 % of control; (dose: 12.0 mg/kg/injection, schedule: Q01DX001 (ip), vehicle: carboxymethylcellulose (CMC)) 211 % of control and 319 % of control; (dose: 17.0 mg/kg/injection, schedule: Q01DX001 (ip), vehicle: carboxymethylcellulose (CMC)) 337 % of control. Further, the T/C by setting is: (dose: 18.0 mg/kg/injection, schedule: Q01DX001 (ip), vehicle: carboxymethylcellulose (CMC)) 319 % of control; (dose: 37.0 mg/kg/injection, schedule: Q01DX001 (ip), vehicle: carboxymethylcellulose (CMC)) 93 % of control and 105 % of control.
Take `CN(C)Cc1ccccc1COC(=O)/C=C/c1ccccc1`: the T/C runs as follows: (dose: 50.0 mg/kg/injection, schedule: Q04DX002 (ip), vehicle: Klucel (hydroxypropylcellulose) (HPC)) 101 % of control; under setting [1], 94 % of control; under setting [2], 97 % of control.
Turning to `N#CC(=C1C=CC(=NO)C=C1)c1ccc(Cl)cc1`, the T/C is, setting by setting: (dose: 100.0 mg/kg/injection, schedule: Q01DX009 (ip), vehicle: saline with Tween-80) 97 % of control; (dose: 100.0 mg/kg/injection, schedule: Q04DX003 (ip), vehicle: saline with Tween-80) 96 % of control; (dose: 200.0 mg/kg/injection, schedule: Q01DX009 (ip), vehicle: saline with Tween-80) 100 % of control; (dose: 200.0 mg/kg/injection, schedule: Q04DX003 (ip), vehicle: saline with Tween-80) 107 % of control; (dose: 400.0 mg/kg/injection, schedule: Q01DX009 (ip), vehicle: saline with Tween-80) 103 % of control; (dose: 400.0 mg/kg/injection, schedule: Q04DX003 (ip), vehicle: saline with Tween-80) 91 % of control.
As to `O=S(=O)(/N=[N+](\[O-])c1ccccc1)c1ccccc1`, the T/C was 103 % of control (dose: 100.0 mg/kg/injection, schedule: Q01DX001 (ip), vehicle: saline); 100 % of control (dose: 200.0 mg/kg/injection, schedule: Q01DX001 (ip), vehicle: saline); 103 % of control (dose: 400.0 mg/kg/injection, schedule: Q01DX001 (ip), vehicle: saline).
In the case of `O=C(ON(Cc1ccccc1)Cc1ccccc1)c1ccccc1`, the T/C is, setting by setting: (dose: 100.0 mg/kg/injection, schedule: Q01DX001 (ip), vehicle: other) 103 % of control; (dose: 200.0 mg/kg/injection, schedule: Q01DX001 (ip), vehicle: other) 100 % of control; (dose: 400.0 mg/kg/injection, schedule: Q01DX001 (ip), vehicle: other) 103 % of control.
In the case of `CCCCN(CCCC)C(=O)c1ccccc1C(=O)O`, the T/C runs as follows: (dose: 75.0 mg/kg/injection, schedule: Q01DX001 (ip), vehicle: saline) 95 % of control; under setting [1], 95 % of control; (dose: 150.0 mg/kg/injection, schedule: Q01DX001 (ip), vehicle: saline) 104 % of control; under setting [2], 95 % of control; (dose: 300.0 mg/kg/injection, schedule: Q01DX001 (ip), vehicle: saline) 103 % of control.
As to `C#CCN(CC#C)c1ccccc1`, the T/C runs as follows: (dose: 100.0 mg/kg/injection, schedule: Q04DX002 (ip), vehicle: saline with Tween-80) 100 % of control; (dose: 200.0 mg/kg/injection, schedule: Q04DX002 (ip), vehicle: saline with Tween-80) 93 % of control; (dose: 400.0 mg/kg/injection, schedule: Q04DX002 (ip), vehicle: saline with Tween-80) 97 % of control.
Turning to `CC(=[N-])CC(C)=O.CC(=[N-])CC(C)=O.[Ni+2]`, the T/C is 90 % of control (dose: 3.0 mg/kg/injection, schedule: Q01DX009 (ip), vehicle: Klucel (hydroxypropylcellulose) (HPC)); 97 % of control (dose: 3.12 mg/kg/injection, schedule: Q01DX001 (ip), vehicle: Klucel (hydroxypropylcellulose) (HPC)); 98 % of control (dose: 3.12 mg/kg/injection, schedule: Q04DX003 (ip), vehicle: Klucel (hydroxypropylcellulose) (HPC)); 97 % of control (dose: 3.13 mg/kg/injection, schedule: Q01DX009 (ip), vehicle: Klucel (hydroxypropylcellulose) (HPC)); 95 % of control (dose: 6.0 mg/kg/injection, schedule: Q01DX009 (ip), vehicle: Klucel (hydroxypropylcellulose) (HPC)); 100 % of control (dose: 6.25 mg/kg/injection, schedule: Q01DX001 (ip), vehicle: Klucel (hydroxypropylcellulose) (HPC)). Also, the T/C by setting is: (dose: 6.25 mg/kg/injection, schedule: Q01DX009 (ip), vehicle: Klucel (hydroxypropylcellulose) (HPC)) 97 % of control; (dose: 6.25 mg/kg/injection, schedule: Q04DX003 (ip), vehicle: Klucel (hydroxypropylcellulose) (HPC)) 97 % of control and 106 % of control; (dose: 12.0 mg/kg/injection, schedule: Q01DX009 (ip), vehicle: Klucel (hydroxypropylcellulose) (HPC)) 96 % of control; (dose: 12.5 mg/kg/injection, schedule: Q01DX001 (ip), vehicle: Klucel (hydroxypropylcellulose) (HPC)) 105 % of control; (dose: 12.5 mg/kg/injection, schedule: Q01DX009 (ip), vehicle: Klucel (hydroxypropylcellulose) (HPC)) 98 % of control; (dose: 12.5 mg/kg/injection, schedule: Q04DX003 (ip), vehicle: Klucel (hydroxypropylcellulose) (HPC)) 102 % of control and 103 % of control. Besides, for the setting “dose: 25.0 mg/kg/injection, schedule: Q01DX001 (ip), vehicle: Klucel (hydroxypropylcellulose) (HPC)”, the T/C is 100 % of control.
For the compound `CCOC(=O)S(=O)(=O)c1ccc(C)cc1`, the T/C runs as follows: (dose: 100.0 mg/kg/injection, schedule: Q04DX003 (ip), vehicle: acetone) 106 % of control; (dose: 200.0 mg/kg/injection, schedule: Q04DX003 (ip), vehicle: acetone) 96 % of control; (dose: 400.0 mg/kg/injection, schedule: Q04DX003 (ip), vehicle: acetone) 101 % of control.
